Measured values from PMC4657098, “A Review of the Updated Pharmacophore for the Alpha 5 GABA(A) Benzodiazepine Receptor Model” (International Journal of Medicinal Chemistry, 2015).
“And” between values parts separate entries of the source, which are not always exact repeats. Equal values may be shown once. Read-outs that look alike come from different tables or passages of the source.

Columns and labels:
α4β2γ2 GABAA receptor = molecular target: T1, α4β2γ2 GABAA receptor (Homo sapiens, UniProt P18507+P48169); experiment: Radioligand binding (McKernan and Atack), α4β2γ2; settings: Table 3; αxβ2γ2; means of two determinations; read-out: Binding affinity α4
T1 construct: expressed in transfected cells; host or cells: HEK cells
Experimental: (§1) Transfected HEK cells (beta2 gamma2 and desired alpha subtype) were harvested into phosphate-buffered saline, centrifuged at 3,000 g, and stored at −70°C until required. On the day of the assay, pellets were thawed and resuspended in sufficient volume of 50 mM Tris/acetate (pH 7.4 at 4°C) to give a total binding of approximately 1500–2000 dpm. […] Total assay volume was 0.5 mL and assays were carried out in 96-well plates and incubation time started by the addition of 0.1 mL of resuspended cell membranes. Following incubation for 1 hour at 4°C, assays were terminated by filtration through GF/B filters, washed with 10 mL ice cold buffer, dried, and then counted using a liquid scintillation counter. […] We have previously reported the synthesis of the following.

α6β2γ2 GABAA receptor = molecular target: T2, α6β2γ2 GABAA receptor (Homo sapiens, UniProt P18507+Q16445); experiment: Radioligand binding (McKernan and Atack), α6β2γ2; settings: Table 3; αxβ2γ2; means of two determinations; read-out: Binding affinity α6
T2 construct: expressed in transfected cells; host or cells: HEK cells
Experimental: as §1

α1β3γ2 GABAA receptor = settings: cited from earlier work; for Efficacy α1 as % of control current: baseline 100
α2β3γ2 GABAA receptor = settings: cited from earlier work; for Efficacy α2 as % of control current: baseline 100
α3β3γ2 GABAA receptor = settings: cited from earlier work; for Efficacy α3 as % of control current: baseline 100
α5β3γ2 GABAA receptor = molecular target: T3, α5β3γ2 GABAA receptor (Homo sapiens, UniProt P18507+P31644); settings: cited from earlier work; for Efficacy α5 as % of control current: baseline 100
T3 construct: expressed in transfected cells; host or cells: Xenopus oocytes

[1] = system: dopamine neurons in the VTA; settings: cited from earlier work
ventral HPC neurons = settings: 0.1 mg/kg, i.v.; MAM- and saline-treated animals; cited from earlier work
MAM rats = settings: cited from earlier work
[2] = system: human airway smooth muscle; settings: 50 μM; p < 0.01; cited from earlier work
[3] = system: guinea pig airway smooth muscle; settings: 1 μM substance P; p < 0.01; cited from earlier work
[4] = system: human airway smooth muscle cells; settings: whole cell patch clamp; cited from earlier work
[5] = system: human airway smooth muscle cells; settings: 10 μM; bradykinin 1 μM; cited from earlier work
primates = settings: cited from earlier work
rodents = settings: one study in rodents; cited from earlier work
AD rat model = experiment: Spatial water maze task in AD rat model; type: in vivo; settings: relative to vehicle, p < 0.05
Excerpt: It is well known many Down syndrome patients develop Alzheimer's disease or a dementia with a very similar etiology.

mice = settings: mice; ref Harris, DeLorey et al.; cited from earlier work
rats = settings: cited from earlier work
rhesus monkeys = settings: cited from earlier work
α1β3γ2 GABAA/BzR [6] = molecular target: T4, α1β3γ2 GABAA/BzR (Homo sapiens, UniProt P14867+P18507); experiment: Competition binding to HEK cell membranes, α1β3γ2; parameters: expressed in transfected cells; settings: Table 2; data from three separate laboratories; read-out: Affinity Ki α1
α2β3γ2 GABAA/BzR [7] = molecular target: T5, α2β3γ2 GABAA/BzR (Homo sapiens, UniProt P18507+P47869); experiment: Competition binding to HEK cell membranes, α2β3γ2; parameters: expressed in transfected cells; settings: Table 2; data from three separate laboratories; read-out: Affinity Ki α2
α3β3γ2 GABAA/BzR [8] = molecular target: T6, α3β3γ2 GABAA/BzR (Homo sapiens, UniProt P18507+P34903); experiment: Competition binding to HEK cell membranes, α3β3γ2; parameters: expressed in transfected cells; settings: Table 2; data from three separate laboratories; read-out: Affinity Ki α3
α5β3γ2 GABAA/BzR = α5β3γ2 GABAA/BzR (Homo sapiens, UniProt P18507+P31644); experiment: Competition binding to HEK cell membranes, α5β3γ2; parameters: expressed in transfected cells; settings: Affinity Ki α5
α6β3γ2 GABAA/BzR [9] = molecular target: T7, α6β3γ2 GABAA/BzR (Homo sapiens, UniProt P18507+Q16445); experiment: Competition binding to HEK cell membranes, α6β3γ2; parameters: expressed in transfected cells; settings: Affinity Ki α6
α1β3γ2 GABAA/BzR [10] = molecular target: T4, α1β3γ2 GABAA/BzR; parameters: expressed in transfected cells; host or cells: LTK cells (given for XLi-093 only); settings: Figure 4, read-out: Ki α1, cited from earlier work
α2β3γ2 GABAA/BzR [11] = molecular target: T5, α2β3γ2 GABAA/BzR; parameters: expressed in transfected cells; host or cells: LTK cells (given for XLi-093 only); settings: Figure 4, read-out: Ki α2, cited from earlier work
α3β3γ2 GABAA/BzR [12] = molecular target: T6, α3β3γ2 GABAA/BzR; parameters: expressed in transfected cells; host or cells: LTK cells (given for XLi-093 only); settings: Figure 4, read-out: Ki α3, cited from earlier work
α6β3γ2 GABAA/BzR [13] = molecular target: T7, α6β3γ2 GABAA/BzR; parameters: expressed in transfected cells; host or cells: LTK cells (given for XLi-093 only); settings: read-out: Ki α6; cited from earlier work

C#Cc1ccc2c(c1)C(c1ccccc1F)=N[C@H](C)c1c(C(=O)OCC)ncn1-2 [SH-053-2′F-R-CH3, (2)]
Ki (α4β2γ2 GABAA receptor): > 5000 nM
Ki (α6β2γ2 GABAA receptor): > 5000 nM
Efficacy α1 as % of control current (α1β3γ2 GABAA receptor; 100 nM): 111 % of control current
Efficacy α1 as % of control current (α1β3γ2 GABAA receptor; 1 μM): 154 % of control current
Efficacy α2 as % of control current (α2β3γ2 GABAA receptor; 100 nM): 124 % of control current
Efficacy α2 as % of control current (α2β3γ2 GABAA receptor; 1 μM): 185 % of control current
Efficacy α3 as % of control current (α3β3γ2 GABAA receptor; 100 nM): 125 % of control current
Efficacy α3 as % of control current (α3β3γ2 GABAA receptor; 1 μM): 220 % of control current
Efficacy α5 as % of control current (α5β3γ2 GABAA receptor; 100 nM): 183 % of control current
Efficacy α5 as % of control current (α5β3γ2 GABAA receptor; 1 μM): 387 % of control current
dopamine neuron activity in control animals ([1]; 0.1 mg/kg, i.v.): no effect
firing rate and burst activity in MAM animals ([1]; 0.1 mg/kg, i.v.): no effect
number of spontaneously firing dopamine neurons (cells/track), MAM animals ([1]; 0.1 mg/kg, i.v.): normalizes the aberrant increase
dopamine activity and locomotor response in MAM rats withdrawn from HAL [1]: unresponsive
number of spontaneously firing dopamine neurons (cells/track), MAM animals ([1]; hippocampal infusion 1 μM/side): normalizes the aberrant increase
percentage of spikes occurring in bursts, MAM and control animals ([1]; hippocampal infusion 1 μM/side): significantly reduced
cells/track in repeatedly haloperidol-treated SAL rats ([1]; rat, in vivo): reversed the haloperidol-induced reduction
firing rate of dopamine neurons in repeatedly haloperidol-treated SAL rats ([1]; rat, in vivo): increase
percentage of spikes occurring in bursts, haloperidol-treated SAL and MAM rats ([1]; rat, in vivo): no impact
evoked excitatory response of ventral HPC neurons (ventral HPC neurons): decreases
locomotor response to D-amphetamine (0.5 mg/kg i.p.), MAM rats (MAM rats; 10 mg/kg, i.p.): reduced
locomotor response to D-amphetamine in repeatedly haloperidol-treated SAL animals (MAM rats; rat, in vivo): reduced
peak locomotor response in repeatedly haloperidol-treated MAM rats (MAM rats; rat, in vivo): no effect
isoproterenol (10 nM) mediated relaxation of an acetylcholine EC50 contraction [2]: significantly enhances
remaining contractile force 30 minutes after a substance P-induced contraction [3]: significantly reduced
plasma membrane chloride current [4]: induced a Cl^− current
bradykinin-induced increase in intracellular calcium [5]: attenuated
anxiolytic effect (primates): very weak anxiolytic effect
locomotion (rodents): decrease in locomotion

COCc1ncn2c1CN(C)C(=O)c1cc(Cl)ccc1-2 [PWZ-029 (1)]
latency to reach the hidden platform (memory probe trials) (AD rat model): significant decrease in the latency to reach the hidden platform
modulation at the α1-subunit (α1β3γ2 GABAA receptor; 0.1 μM): little or no effect
efficacy type at the α1 subunit (α1β3γ2 GABAA receptor; oocytes, Sieghart et al.): very weak agonist activity
modulation at the α2-subunit (α2β3γ2 GABAA receptor; 0.1 μM): little or no effect
efficacy type at the α2 subunit (α2β3γ2 GABAA receptor; oocytes, Sieghart et al.): very weak agonist activity
modulation at the α3-subunit (α3β3γ2 GABAA receptor; 0.1 μM): little or no effect
efficacy type at the α3 subunit (α3β3γ2 GABAA receptor; oocytes, Sieghart et al.): very weak agonist activity
efficacy type at the α5-subunit (α5β3γ2 GABAA receptor): negative allosteric modulator
modulation at the α5-subunit (α5β3γ2 GABAA receptor): moderate negative modulation
scopolamine-induced memory impairment (mice): potently reversed
recognition memory deficit induced by 0.3 mg/kg scopolamine, 1 h delay (rats; 2 mg/kg): successfully reversed the deficit in recognition memory
object recognition, 24 h delay (rats; 2, 5 and 10 mg/kg): improved object recognition
ORD “difficult” trials (rhesus monkeys; i.v.): increasing dose-dependent curve for successful trials
ORD “mixed” trials versus vehicle (rhesus monkeys; i.v.): no significant results
ORD, cholinergic deficits induced by scopolamine (rhesus monkeys; scopolamine 0.01 mg/kg): dose-dependently reverse the cholinergic deficits
Ki (α1β3γ2 GABAA/BzR [6]): > 300 nM and 920 nM and 362 nM
Ki (α2β3γ2 GABAA/BzR [7]): > 300 nM and 180 nM
Ki (α3β3γ2 GABAA/BzR [8]): > 300 nM and 328 nM
Ki (α5β3γ2 GABAA/BzR): 38.8 nM and 30 nM and 6 nM
Ki (α6β3γ2 GABAA/BzR [9]): > 300 nM
Ki (α1β3γ2 GABAA/BzR [10]; listed as 1a): > 300 nM
Ki (α1β3γ2 GABAA/BzR [10]; listed as 1c): 362 nM
Ki (α2β3γ2 GABAA/BzR [11]; listed as 1a): > 300 nM
Ki (α2β3γ2 GABAA/BzR [11]; listed as 1c): 180 nM
Ki (α3β3γ2 GABAA/BzR [12]; listed as 1a): > 300 nM
Ki (α3β3γ2 GABAA/BzR [12]; listed as 1c): 328 nM
Ki (α6β3γ2 GABAA/BzR [13]): > 300 nM
